What was measured:
Test in all cases: Recombinant HDAC activity assay
Assay type in all cases: biochemical
recombinant HDAC2 = recombinant HDAC2 (Homo sapiens, UniProt Q92769); details: 2 h, read-out: % HDAC activity, Class I HDACs, 2
recombinant HDAC8 = target: T1, recombinant HDAC8 (Homo sapiens, UniProt Q9BY41); details: 2 h, read-out: % HDAC activity, Class I HDACs, 8
T1 sequence (Q9BY41 1-377): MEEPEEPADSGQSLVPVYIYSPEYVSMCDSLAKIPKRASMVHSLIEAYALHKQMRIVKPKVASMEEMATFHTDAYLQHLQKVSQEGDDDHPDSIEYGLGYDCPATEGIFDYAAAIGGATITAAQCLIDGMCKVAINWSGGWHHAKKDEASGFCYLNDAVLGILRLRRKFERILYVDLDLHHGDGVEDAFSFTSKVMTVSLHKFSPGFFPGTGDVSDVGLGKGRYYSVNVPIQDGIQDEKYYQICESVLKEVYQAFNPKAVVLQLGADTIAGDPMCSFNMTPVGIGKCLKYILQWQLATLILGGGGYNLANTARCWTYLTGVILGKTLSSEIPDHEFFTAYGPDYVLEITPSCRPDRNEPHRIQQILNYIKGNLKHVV

recombinant HDAC9 = recombinant HDAC9 (Homo sapiens, UniProt Q9UKV0); details: 2 h, read-out: % HDAC activity, Class IIa HDACs, 9
recombinant HDAC10 = target: T2, recombinant HDAC10 (Homo sapiens, UniProt Q969S8); details: 2 h, read-out: % HDAC activity, Class IIb HDACs, 10
T2 sequence (Q969S8 1-669): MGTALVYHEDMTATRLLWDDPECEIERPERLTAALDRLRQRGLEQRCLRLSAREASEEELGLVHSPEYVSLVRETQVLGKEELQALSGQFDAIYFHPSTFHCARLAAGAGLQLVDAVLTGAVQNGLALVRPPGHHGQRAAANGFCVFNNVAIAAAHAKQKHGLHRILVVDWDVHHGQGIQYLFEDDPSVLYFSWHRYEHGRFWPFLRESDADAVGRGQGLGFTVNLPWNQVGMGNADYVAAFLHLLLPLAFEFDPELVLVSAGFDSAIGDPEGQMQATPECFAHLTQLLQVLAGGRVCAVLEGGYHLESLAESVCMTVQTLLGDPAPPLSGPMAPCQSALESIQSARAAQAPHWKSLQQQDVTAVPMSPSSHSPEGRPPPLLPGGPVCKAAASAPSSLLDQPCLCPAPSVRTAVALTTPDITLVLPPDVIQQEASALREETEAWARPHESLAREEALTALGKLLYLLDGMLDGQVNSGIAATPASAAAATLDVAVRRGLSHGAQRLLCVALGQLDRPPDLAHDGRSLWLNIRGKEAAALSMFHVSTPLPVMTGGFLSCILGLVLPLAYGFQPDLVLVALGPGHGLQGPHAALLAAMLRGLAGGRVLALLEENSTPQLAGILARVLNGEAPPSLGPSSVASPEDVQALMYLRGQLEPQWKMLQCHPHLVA

Sequence of recombinant HDAC9 (Q9UKV0 whole entry): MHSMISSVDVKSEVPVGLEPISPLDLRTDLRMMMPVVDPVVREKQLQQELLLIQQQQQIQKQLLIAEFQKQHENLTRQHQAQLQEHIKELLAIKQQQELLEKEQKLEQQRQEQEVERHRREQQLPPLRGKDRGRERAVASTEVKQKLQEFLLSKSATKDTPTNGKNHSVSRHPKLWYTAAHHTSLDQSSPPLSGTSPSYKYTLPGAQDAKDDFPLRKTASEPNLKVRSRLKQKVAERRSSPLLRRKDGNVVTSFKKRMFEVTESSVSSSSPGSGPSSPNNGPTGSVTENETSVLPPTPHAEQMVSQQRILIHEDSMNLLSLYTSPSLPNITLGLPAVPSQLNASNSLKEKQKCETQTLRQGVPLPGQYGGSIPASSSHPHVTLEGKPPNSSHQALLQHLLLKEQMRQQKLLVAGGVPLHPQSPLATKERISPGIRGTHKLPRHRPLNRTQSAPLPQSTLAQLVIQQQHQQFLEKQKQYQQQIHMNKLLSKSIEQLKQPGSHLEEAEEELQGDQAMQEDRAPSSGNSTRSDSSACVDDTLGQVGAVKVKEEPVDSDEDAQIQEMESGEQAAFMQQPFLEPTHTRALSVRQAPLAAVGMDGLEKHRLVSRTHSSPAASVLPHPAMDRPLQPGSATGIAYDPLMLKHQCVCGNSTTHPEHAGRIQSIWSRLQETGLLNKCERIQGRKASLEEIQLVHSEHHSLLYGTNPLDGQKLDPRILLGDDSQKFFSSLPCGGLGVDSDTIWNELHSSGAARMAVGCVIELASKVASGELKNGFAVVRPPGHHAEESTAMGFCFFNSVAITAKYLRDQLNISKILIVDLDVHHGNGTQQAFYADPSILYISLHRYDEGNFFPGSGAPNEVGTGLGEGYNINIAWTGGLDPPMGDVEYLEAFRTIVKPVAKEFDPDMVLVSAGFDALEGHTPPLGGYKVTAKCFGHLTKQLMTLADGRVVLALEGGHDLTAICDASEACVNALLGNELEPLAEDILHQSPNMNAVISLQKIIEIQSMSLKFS
Sequence of recombinant HDAC2 (Q92769 whole entry): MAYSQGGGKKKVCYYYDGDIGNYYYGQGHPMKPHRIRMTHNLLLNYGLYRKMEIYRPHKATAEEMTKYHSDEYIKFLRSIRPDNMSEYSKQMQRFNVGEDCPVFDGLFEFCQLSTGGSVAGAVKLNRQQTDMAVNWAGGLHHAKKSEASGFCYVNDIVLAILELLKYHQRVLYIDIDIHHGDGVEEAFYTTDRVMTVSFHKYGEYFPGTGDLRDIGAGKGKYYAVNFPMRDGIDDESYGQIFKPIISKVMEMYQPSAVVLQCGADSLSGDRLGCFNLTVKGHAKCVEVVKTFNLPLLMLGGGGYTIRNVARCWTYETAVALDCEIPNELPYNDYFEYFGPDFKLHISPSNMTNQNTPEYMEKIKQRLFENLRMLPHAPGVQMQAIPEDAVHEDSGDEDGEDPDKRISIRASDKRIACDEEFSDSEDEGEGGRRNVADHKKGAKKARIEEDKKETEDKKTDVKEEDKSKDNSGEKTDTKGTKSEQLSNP

- remaining activity at 50 µM (recombinant HDAC2): 35%
- remaining activity at 50 µM (recombinant HDAC8): 32.3%
- remaining activity at 50 µM (recombinant HDAC9): 34.7%
- remaining activity at 50 µM (recombinant HDAC10): 35.8%
SMILES: Cc1cc(O)c2c(c1)C(=O)c1cc(O)cc(O)c1C2=O [Emodin]

Reference: article PMC5508980 (Molecular nutrition & food research, 2017)
